According to patent publication US20230390250A1, “MODULATION OF GLUCAGON-LIKE PEPTIDE 1 AND USES THEREOF” (priority 2020, published 2023):
“Also recorded” adds a separate entry of the source. Read-outs that look alike come from different tables or passages of the source.

Key:
Dpp4 gene expression = Dpp4 gene expression in LPA-treated GLUTag cells (real time PCR); type: cell-based, mouse; details: 2.5 uM 20:4-LPA, 2 hours and up to 2 days, normalised to Gapdh
GLUTag cells = test: GLP-1 secretion from cultured GLUTag cells treated with LPA and/or LPAR antagonist; type: cell-based, mouse; details: for effect of LPAR antagonist alone on GLP-1 levels: 10 μM antagonist alone, 2 h; for rescue of LPA-inhibited GLP-1 secretion by LPAR antagonist: 10 μM antagonist plus 2.5 μM LPA
Description: We have grown GLUTag cells in culture to test effects of various LPA species and the LPAR 1/2/3 inhibitor Ki-16425. GLUTag cells are a well characterized L-cell line derived from a mouse intestinal tumour, which have been widely used to study the regulation of GLP-1. Briefly, GLUTag cells were grown until 80-90% confluent. Complete medium, containing fetal bovine serum, was replaced with medium containing charcoal[…] dextran treated serum, which removes lipids and hormones that could interfere with testing. […] This indicates a direct inhibitory effect of LPA at physiologically relevant levels on GLP-1 secretion by L-cells, and the ability of a commercially available LPAR antagonist to prevent this.
Experimental Protocol. Briefly, GLUTag cells were grown until 70-80% confluent. Complete medium (low glucose DMEM), containing fetal bovine serum, was replaced with medium containing charcoal-dextran treated serum, which removes lipids and hormones that could interfere with testing. Cells were then treated with medium containing either DMSO as vehicle control (0.1% v/v), 2.5 μM LPA, 10 μM LPAR antagonist, or a combination of the LPA species and inhibitors. For cells treated with both LPA plus LPAR inhibitor: cells were pre-treated with LPA for 30 minutes and then 10 uM LPAR inhibitor was added to the respective wells for a further 2 hours. For cells treated with LPA only, or vehicle only, the total treatment time was 2.5 hours. For cells treated with antagonist only, the treatment time was 2 hours.

LPAR4 [1] = target: T1, LPAR4 (Homo sapiens, UniProt Q99677); details: cited from earlier work
T1 construct: host or cells: CHO cells

DPP4 [2] = test: DPP4 activity in GLUTag cells (fluorometric kit ab204722); type: cell-based, mouse; details: for effect of 18:1-LPA combined with LPAR antagonist on DPP4 activity in GLUTag cells: 2.5 uM 18:1-LPA 30 minutes, then 10 uM antagonist 2 hours; for effect of LPAR antagonist alone on DPP4 activity in GLUTag cells: 10 uM antagonist, 2 hours
Description: Briefly, GLUTag cells were grown to produce the recommended quantity needed for the assay according to the manufacturer's protocol (ab204722 Dipeptidyl peptidase IV Activity Assay Kit (Fluorometric)), and then the wells were treated in media containing charcoal-stripped FBS (10%), with either nothing (no treatment control), or vehicle control (0.05% DMSO), or 2.5 uM 18:1-LPA for 30 minutes, and then the inhibitors (as indicated in the graph of FIG. 17) were added to the vehicle wells and the 2.5 uM 18:1-LPA wells at 10 uM concentrations, as indicated on the graph (FIG. 17), for an additional 2 hours. Cells were then harvested according to the manufacturer's protocol, and lysed using reagents from the kit. Charcoal-stripped FBS was used to remove lipids, including LPA, from serum. Experiments were also carried out wherein the FBS was not stripped with charcoal, and the results were not different.
According to the manufacturer, dipeptidyl peptidase IV (DPP4) Activity Assay Kit (Fluorometric) (ab204722) is an assay where DPP4 cleaves a substrate to release a quenched fluorescent group, AMC (7-Amino-4-Methyl Coumarin), which can be easily detected at Ex/Em=360/460 nm. This assay is rapid, simple, sensitive, and reliable, as well as, suitable for high throughput activity screening of DPP4. This kit detects DPP4 activity as low as 3 ρU per well.

LPAR1 [3] = target: T2, LPAR1 (Homo sapiens, UniProt Q92633); design: expressed in transfected cells; host or cells: CHO cell membranes; details: CHO cell membranes; read-out: IC50, inhibition of GTP-gamma-s binding, human LPAR1; cited from earlier work
Target sequence in this assay (Q92633 whole entry): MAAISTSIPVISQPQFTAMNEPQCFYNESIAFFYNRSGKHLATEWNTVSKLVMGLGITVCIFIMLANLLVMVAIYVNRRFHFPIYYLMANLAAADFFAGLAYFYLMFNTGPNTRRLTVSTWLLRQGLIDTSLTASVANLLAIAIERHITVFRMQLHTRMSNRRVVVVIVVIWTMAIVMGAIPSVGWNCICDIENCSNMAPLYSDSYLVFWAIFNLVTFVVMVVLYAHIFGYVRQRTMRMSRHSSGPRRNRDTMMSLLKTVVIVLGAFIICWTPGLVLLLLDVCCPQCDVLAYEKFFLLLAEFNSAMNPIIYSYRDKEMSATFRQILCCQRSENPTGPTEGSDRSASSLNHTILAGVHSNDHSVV

LPAR3 [4] = target: T3, LPAR3 (Homo sapiens, UniProt Q9UBY5); details: cited from earlier work
T3 sequence (Q9UBY5 1-353): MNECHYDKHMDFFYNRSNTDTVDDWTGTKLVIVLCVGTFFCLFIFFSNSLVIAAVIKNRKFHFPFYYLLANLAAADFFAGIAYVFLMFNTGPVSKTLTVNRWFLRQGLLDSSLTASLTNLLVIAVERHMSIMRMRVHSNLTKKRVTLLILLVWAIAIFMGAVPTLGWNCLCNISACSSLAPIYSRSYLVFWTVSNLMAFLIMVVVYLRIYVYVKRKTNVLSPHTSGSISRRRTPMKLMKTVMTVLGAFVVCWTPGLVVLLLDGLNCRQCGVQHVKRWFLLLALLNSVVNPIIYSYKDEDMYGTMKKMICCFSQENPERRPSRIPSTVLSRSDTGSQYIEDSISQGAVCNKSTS

LPAR2 [5] = target: T4, LPAR2 (Homo sapiens, UniProt Q9HBW0); details: cited from earlier work
GLP-1 = test: Circulating GLP-1 in mice injected with LPA, with or without LPAR antagonist pre-treatment; type: in vivo; details: for rescue of the fall in blood GLP-1 levels caused by LPA: antagonist 30 mg/kg by gavage 10 min before 50 mg/kg 18:1-LPA i.p., serum at 30 min (Examples 6, 8); for blood GLP-1 with antagonist alone versus vehicles: antagonist 30 mg/kg by gavage, no LPA
Description: We injected mice i.p. with vehicle (10% DMSO in isotonic saline) or 50 mg/kg of 1-oleoyl-2-hydroxy-LPA. Half of the mice injected with LPA were pre-injected with 5 mg/kg Ki-16425 10 minutes prior to receiving LPA. Thirty minutes later, samples of blood were taken by cardiac puncture, and circulating active GLP-1 levels in plasma were analysed by enzyme linked immunosorbent assay.
The experimental protocol was as follows: • 1. Mice were administered an LPAR antagonist drug, either by oral gavage (for BMS986020, SARI 00842, AM966, AM095, or H2L51863030), or by i.p. injection (for Ki-16425, and LPA2-antagonistl) at the doses indicated in the table below. • 2. Control mice were administered only the vehicle (a 10% DMSO solution) given via the same route as the comparison drug was administered. • 3. Ten minutes later, mice were injected i.p. either with isotonic saline, or with 50 mg/kg LPA. • 4. Thirty minutes later, mice were euthanized by cervical dyslocation, and blood was collected from the heart for preparation of serum that was stored at −80C until it was analyzed for total GLP-1 concentration by ELISA assay using a GLP-1 enzyme immunoassay kit.

recombinant mouse LPAR1 = target: T5, recombinant mouse LPAR1 (Mus musculus, UniProt P61793); details: CHO cell membranes; read-out: IC50, inhibition of GTP-gamma-s binding, mouse LPAR1; cited from earlier work
T5 construct: expressed in transfected cells; host or cells: CHO cell membranes

LPAR1 [6] = target: T2, LPAR1; details: cited from earlier work
Target sequence in this assay (Q92633 whole entry, species assumed): as the sequence (Q92633 whole entry) above

LPAR5 [7] = target: T6, LPAR5 (Homo sapiens, UniProt Q9H1C0); details: cited from earlier work
T6 construct: host or cells: CHO cells

LPAR2 [8] = target: T4, LPAR2; details: cited from earlier work; remark: listed apart in the source
LPAR1 [9] = target: T2, LPAR1; design: expressed in transfected cells; host or cells: CHO cells; details: cited from earlier work
Target sequence in this assay (Q92633 whole entry): as the sequence (Q92633 whole entry) above

LPAR4 [10] = target: T1, LPAR4; details: cited from earlier work; remark: listed apart in the source
LPAR5 [11] = target: T6, LPAR5; details: cited from earlier work; remark: listed apart in the source
LPAR3 [12] = target: T3, LPAR3; details: cited from earlier work; remark: listed apart in the source
DPP4 [13] = test: DPP4 activity in serum of C57BI/6J mice; type: in vivo

T6 sequence (Q9H1C0 whole entry, species assumed): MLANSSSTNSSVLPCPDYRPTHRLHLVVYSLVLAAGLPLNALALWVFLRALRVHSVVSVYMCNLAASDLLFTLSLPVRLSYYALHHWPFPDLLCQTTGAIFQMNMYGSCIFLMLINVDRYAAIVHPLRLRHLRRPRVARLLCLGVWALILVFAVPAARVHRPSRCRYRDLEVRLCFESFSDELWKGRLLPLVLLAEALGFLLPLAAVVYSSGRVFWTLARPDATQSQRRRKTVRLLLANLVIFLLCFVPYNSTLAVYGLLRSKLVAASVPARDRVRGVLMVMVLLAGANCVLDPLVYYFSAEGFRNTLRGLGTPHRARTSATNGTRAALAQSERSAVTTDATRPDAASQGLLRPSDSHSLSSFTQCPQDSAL
T4 sequence (Q9HBW0 whole entry, species assumed): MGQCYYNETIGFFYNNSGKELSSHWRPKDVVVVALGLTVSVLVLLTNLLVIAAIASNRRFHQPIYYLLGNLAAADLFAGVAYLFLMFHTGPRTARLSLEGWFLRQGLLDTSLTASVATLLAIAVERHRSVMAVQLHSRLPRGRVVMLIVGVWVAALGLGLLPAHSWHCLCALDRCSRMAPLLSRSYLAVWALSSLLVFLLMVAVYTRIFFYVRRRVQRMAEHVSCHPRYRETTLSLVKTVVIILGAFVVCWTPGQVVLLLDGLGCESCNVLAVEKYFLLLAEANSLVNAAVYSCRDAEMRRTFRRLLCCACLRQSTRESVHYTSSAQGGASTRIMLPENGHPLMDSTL
T1 sequence (Q99677 whole entry, species assumed): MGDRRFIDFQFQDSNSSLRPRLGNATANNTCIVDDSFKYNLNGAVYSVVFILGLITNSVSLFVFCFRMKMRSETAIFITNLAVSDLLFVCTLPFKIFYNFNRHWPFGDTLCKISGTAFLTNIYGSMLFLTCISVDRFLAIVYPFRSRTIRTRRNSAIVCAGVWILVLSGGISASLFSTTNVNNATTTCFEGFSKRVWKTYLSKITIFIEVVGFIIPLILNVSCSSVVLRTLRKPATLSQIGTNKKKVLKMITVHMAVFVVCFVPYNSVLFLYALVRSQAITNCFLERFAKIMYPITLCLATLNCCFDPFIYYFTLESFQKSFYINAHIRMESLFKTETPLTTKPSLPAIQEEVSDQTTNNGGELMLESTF
T5 sequence (P61793 whole entry): as the sequence (Q92633 whole entry) above, with I4A, I8S, P22Q, H40Y, I61V, E193D, N194H, I269V, S331N, T335N counted along it

In the case of `CCCCC/C=C\C/C=C\C/C=C\C/C=C\CCCC(=O)OCC(O)COP(=O)(O)O` (stereo not shown) [20:4-LPA, 1-arachidonoyl-2-hydroxy-LPA], the “change in Dpp4 gene expression” value (Dpp4 gene expression) is reported as “did not significantly change”, the “fold decrease in GLP-1 secretion / GLP-1 levels in media caused by LPA” value (GLUTag cells; 2.5 μM LPA species) is reported as ~5 fold and the “decrease in GLP-1 secretion / level caused by LPA (fraction)” value (GLUTag cells; 2.5 μM LPA, 2-2.5 h) is reported as “over 2/3”.

In the case of `Cc1noc(-c2ccc(-c3ccc(CC(=O)O)cc3)cc2)c1NC(=O)O[C@H](C)c1ccccc1` [AM095], the IC50 (LPAR4 [1]) is given as ≥ 10 µM, the “effect of 18:1-LPA combined with LPAR antagonist on DPP4 activity in GLUTag cells” value (DPP4 [2]) is given as “did not significantly affect” and the “effect of LPAR antagonist alone on DPP4 activity in GLUTag cells” value (DPP4 [2]) is given as “did not significantly affect”. The IC50 (LPAR1 [3]) was 0.98 µM, the “level at which LPAR3 is antagonized” value (LPAR3 [4]) was “low micromolar levels” and the IC50 (LPAR3 [4]; read-out: IC50 for LPAR3) was ≥ 10 µM. For the same compound, the IC50 (LPAR2 [5]) was ≥ 10 µM, the “rescue of the fall in blood GLP-1 levels caused by LPA” value (GLP-1) was “completely abrogated; also recorded: Complete rescues” and the “blood GLP-1 with antagonist alone versus vehicles” value (GLP-1) was “not significantly different from mice treated only with the vehicles”. For the same compound, the “effect of LPAR antagonist alone on GLP-1 levels” value (GLUTag cells) was “no significant effect”, the “rescue of LPA-inhibited GLP-1 secretion by LPAR antagonist” value (GLUTag cells) was “complete rescue” and the IC50 (recombinant mouse LPAR1) was 0.73 µM. For the same compound, the IC50 (LPAR1 [6]; read-out: IC50 for LPAR1) was ~0.025 µM, the “fold greater affinity for LPAR1 than LPAR2-5” value (LPAR1 [6]; selectivity) was > 400 fold and the IC50 (LPAR5 [7]) was ≥ 10 µM.

In the case of `Cc1noc(-c2ccc(-c3ccc(CC(=O)O)cc3)cc2)c1NC(=O)O[C@H](C)c1ccccc1Cl` [AM966], the IC50 (LPAR2 [8]; calcium assay, CHO cells, read-out: IC50, LPAR2) is listed as 1.7 µM, the IC50 (LPAR2 [8]; read-out: IC50, LPAR2, calcium release in CHO cells) is listed as 1.7 µM and the “effect of 18:1-LPA combined with LPAR antagonist on DPP4 activity in GLUTag cells” value (DPP4 [2]) is listed as “did not significantly affect”. For the same compound, the “effect of LPAR antagonist alone on DPP4 activity in GLUTag cells” value (DPP4 [2]) was “did not significantly affect”, the IC50 (LPAR1 [9]; LPA-induced calcium response, CHO cells with LPAR1) was 0.017 µM and the “fold lower affinity for LPAR2, LPAR3 (than LPAR1)” value (LPAR1 [9]; selectivity) was ~10 fold. For the same compound, the “level at which LPAR3 is antagonized” value (LPAR3 [4]) was “low micromolar levels”, the IC50 (LPAR4 [10]; calcium assay, CHO cells, read-out: IC50, LPAR4) was 7.7 µM and the IC50 (LPAR4 [10]; read-out: IC50, LPAR4, calcium release in CHO cells) was 7.7 µM. For the same compound, the IC50 (LPAR5 [11]; calcium assay, CHO cells, read-out: IC50, LPAR5) was 8.6 µM, the IC50 (LPAR5 [11]; read-out: IC50, LPAR5, calcium release in CHO cells) was 8.6 µM and the IC50 (LPAR3 [12]; calcium assay, CHO cells, read-out: IC50, LPAR3) was 1.6 µM. The IC50 (LPAR3 [12]; read-out: IC50, LPAR3, calcium release in CHO cells) was 1.6 µM, the “effect of antagonist on DPP4 activity in mouse serum” value (DPP4 [13]; 30 mg/kg by gavage) was “did not significantly affect; also recorded: lack of effect; also recorded: not significantly affected” and the “effect of 18:1-LPA combined with antagonist on DPP4 activity in mouse serum” value (DPP4 [13]; antagonist 30 mg/kg by gavage then 50 mg/kg 18:1-LPA) was “did not affect”. The “rescue of the fall in blood GLP-1 levels caused by LPA” value (GLP-1) was “completely abrogated; also recorded: Complete rescues; also recorded: restored to normal levels”, the “blood GLP-1 with antagonist alone versus vehicles” value (GLP-1) was “indistinguishable from mice treated only with the vehicles” and the “effect of LPAR antagonist alone on GLP-1 levels” value (GLUTag cells) was “no significant effect”. The “rescue of LPA-inhibited GLP-1 secretion by LPAR antagonist” value (GLUTag cells) was “complete rescue”.
